# Experimental data reported in patent US4400384A, “5-o-Cyanobenzyl-4,5,6,7-tetrahydrothieno [3,2-c] pyridine methanesulfonate and other novel salts thereof” (Sanofi, S.A., priority 1980, dated 1983).
# Tests used:
# [1] = test system: blood-platelet aggregation (collagen); experiment: Inhibitor action on blood-platelet aggregation, collagen method (ex vivo after gastric tube dosing); type: in vivo, female rats of the Wistar type; details: 100 mg/Kg base equivalent at 48, 24 and 2 h before blood drawing, controls 2.53
# Protocol: (§1) The inhibitor action on blood-platelet aggregation of the salts of the present invention was determined by two different standard methods known to the art.
# (§2) The second method is that described in Ferrand J. C., Lale A.--NUMERATION ET AGREGATION PLAQUETTAIRE A L AIDE DE L AUTOCOUNTER. APPLICATION A L ETUDE DE LA TICLOPIDINE. COMM. SYMPOSIUM TECHNICON INDUSTRIE (PARIS, June 15, 1978); Ferrand J. C., Lale A.--EVALUATION EX-VIVO DE L AGREGATION PLAQUETTAIRE PAR UNE TECHNIQUE AUTOMATIQUE SUR SANG TOTAL COMM. SOCIETE FRANCAISE DE BIOLOGIE CLINIQUE (PARIS Sept. 28, 1979); and J. C. Ferrand, A. Lale, D. Aubert and G. Barthelemy--APPRECIATION QUANTITATIVE DE L' ACTIVITE ANTI-AGREGANTE DE LA TICLOPIDINE PAR VOIE AUTOMATIQUE. COMM. REUNION DE L' ASOCIATION FRANCAISE DE PHARMACOLOGISTES DIJON (May 2-3, 1980), and is referred to hereafter as the collagen method.
# Groups of 10 female rats of the Wistar type were each dosed with one of the base or one of the salts of the invention and with the corresponding maleate salt of Amselem U.S. Pat. No. 4,097,482, at periods of 48 hours, 24 hours and 2 hours prior to drawing blood for testing by the ADP and collagen techniques referred to above. The active medicaments were administered by means of a gastric tube in the form of a 5% aqueous solution of gum arabic. A dosage level of 100 mg/Kg was used for the base, and for the salts an amount was used sufficient to provide the equivalent amount of the base portion of the salt.
# Anti-thrombotic activity = details: in vivo
# [2] = test system: blood-platelet aggregation; experiment: Inhibition of blood-platelet aggregation (general statement); type: in vivo; details: result in words
# Protocol: as §1
# The first method, involving the use of ADP (adenosine diphosphate), is that of Ferrand J. C., Gaich C., Dumas, A.--EVALUATION DE L' EFFET ANTI-AGREGANT DE LA TICLOPIDINE PAR UNE TECHNIQUE SUR SANG TOTAL. COMM. SOCIETE DE BIOLOGIE DE TOULOUSE (TOULOUSE Feb. 9, 1978), RESUME IN: REV MED TOULOUSE, 1978, 14, (SUPPL. 5) 680, referred to hereinafter as the ADP method.
# as §2, with “method. […]” for “method.”
# [3] = test system: central nervous system activity of chloral and "Nembutal"; experiment: Potentiation of central nervous system activity of chloral and Nembutal; type: in vivo
smiles,measurement,setting,value
"CS(=O)(=O)O.N#Cc1ccccc1CN1CCc2sccc2C1 [Methanesulfonate, 5-o-Cyanobenzyl-4,5,6,7-tetrahydrothieno [3,2-c] pyridine methanesulfonate]","BLOOD PLATELET AGGREGATION, COLLAGEN",[1],0.59
same,anti-thrombotic activity,Anti-thrombotic activity,exhibits anti-thrombotic activity
same,inhibitor action against blood-platelet aggregation,[2],excellent inhibitory action against blood-platelet aggregation
same,potentiation of central nervous system activity of Nembutal,"[3]; ""Nembutal"" (Ca or Na pentobarbital)",does potentialize the central nervous system activity
same,potentiation of central nervous system activity of chloral,[3]; chloral,does potentialize the central nervous system activity of chloral
